# In ChEMBL document CHEMBL6071129, “Strategies that regulate Hippo signaling pathway for novel anticancer therapeutics” (Eur J Med Chem, 2024):
# Experiments:
# [1] = Inhibition of His-tagged TEAD1 (unknown origin) to YAP (unknown origin) protein-protein interaction preincubated for 30 mins followed by biotinylated YAP addition and measured after 60 mins by TR-FRET assay; design: species or system Homo sapiens
# [2] = Inhibition of His-tagged TEAD2 (unknown origin) to YAP (unknown origin) protein-protein interaction preincubated for 30 mins followed by biotinylated YAP addition and measured after 60 mins by TR-FRET assay; design: species or system Homo sapiens
# [3] = Inhibition of His-tagged TEAD3 (unknown origin) to YAP (unknown origin) protein-protein interaction preincubated for 30 mins followed by biotinylated YAP addition and measured after 60 mins by TR-FRET assay; design: species or system Homo sapiens
# [4] = Inhibition of His-tagged TEAD4 (unknown origin) to YAP (unknown origin) protein-protein interaction preincubated for 30 mins followed by biotinylated YAP addition and measured after 60 mins by TR-FRET assay; design: species or system Homo sapiens
# [5] = Inhibition of His-tagged TEAD1 (unknown origin) to TAZ (unknown origin) protein-protein interaction preincubated for 30 mins followed by biotinylated YAP addition and measured after 60 mins by TR-FRET assay; design: species or system Homo sapiens
# [6] = Inhibition of His-tagged TEAD2 (unknown origin) to TAZ (unknown origin) protein-protein interaction preincubated for 30 mins followed by biotinylated YAP addition and measured after 60 mins by TR-FRET assay; design: species or system Homo sapiens
# [7] = Inhibition of His-tagged TEAD3 (unknown origin) to TAZ (unknown origin) protein-protein interaction preincubated for 30 mins followed by biotinylated YAP addition and measured after 60 mins by TR-FRET assay; design: species or system Homo sapiens
# [8] = Inhibition of His-tagged TEAD4 (unknown origin) to TAZ (unknown origin) protein-protein interaction preincubated for 30 mins followed by biotinylated YAP addition and measured after 60 mins by TR-FRET assay; design: species or system Homo sapiens
# [9] = tested on: Transcriptional enhancer factor TEF-1-Lipid; assay: Inhibition of His-tagged TEAD1 (unknown origin) to lipid (unknown origin) interaction preincubated for 30 mins followed by biotinylated lipid addition and measured after 60 mins by TR-FRET assay; design: species or system Homo sapiens
# [10] = tested on: Transcriptional enhancer factor TEF-4-Lipid; assay: Inhibition of His-tagged TEAD2 (unknown origin) to lipid (unknown origin) interaction preincubated for 30 mins followed by biotinylated lipid addition and measured after 60 mins by TR-FRET assay; design: species or system Homo sapiens
# [11] = tested on: Transcriptional enhancer factor TEF-5-Lipid; assay: Inhibition of His-tagged TEAD3 (unknown origin) to lipid (unknown origin) interaction preincubated for 30 mins followed by biotinylated lipid addition and measured after 60 mins by TR-FRET assay; design: species or system Homo sapiens
# [12] = tested on: Transcriptional enhancer factor TEF-3-Lipid; assay: Inhibition of His-tagged TEAD4 (unknown origin) to lipid (unknown origin) interaction preincubated for 30 mins followed by biotinylated lipid addition and measured after 60 mins by TR-FRET assay; design: species or system Homo sapiens
# OVCAR-8 [13] = assay: Antiproliferative activity against human OVCAR-8 cells by CellTiter-Glo luminescent cell viability assay; assay type: functional, cell-based
# [14] = Antiproliferative activity against human HCC1576 cells by CellTiter-Glo luminescent cell viability assay; assay type: functional, cell-based
# [15] = Antiproliferative activity against human VMRC-LCD cells by CellTiter-Glo luminescent cell viability assay; assay type: functional, cell-based
# OVCAR-8 [16] = assay: Antiproliferative activity against human OVCAR-8 cells assessed as minimum efficacy by CellTiter-Glo luminescent cell viability assay; assay type: functional
# [17] = Antiproliferative activity against human HCC1576 cells assessed as minimum efficacy by CellTiter-Glo luminescent cell viability assay; assay type: functional
# [18] = Antiproliferative activity against CMT9 cells incubated for 48 hrs; assay type: functional; conditions: Canis lupus familiaris, read-out: ED50 (the source's name)
# [19] = Antiproliferative activity against CMT47 cells incubated for 48 hrs; assay type: functional; conditions: Canis lupus familiaris, read-out: ED50 (the source's name)
# HuCCT-1 = assay: Antiproliferative activity against human HuCCT-1 cells incubated for 24 hrs by WST-1 assay; assay type: functional, cell-based; conditions: HuCCT-1, 24 h
# [20] = Inhibition of TEAD (unknown origin) to YAP (unknown origin) protein-protein interaction expressed in HEK293T cells transfected with 8XGTIIC-Luciferase and CMV-betagalactosidase incubated for 24 hrs by luciferase reporter assay; assay type: cell-based, Homo sapiens
# C8161 = assay: Antiproliferative activity against human C8161 cells incubated for 72 hrs by alamar blue staining based assay; assay type: functional, cell-based; conditions: C8161, 72 h
# A-375 = assay: Antiproliferative activity against human A-375 cells incubated for 72 hrs by alamar blue staining based assay; assay type: functional, cell-based; conditions: A-375, 72 h
# NCI-H2052 = assay: Antiproliferative activity against human NCI-H2052 cells; assay type: functional, cell-based
# [21] = Inhibition of TEAD (unknown origin) by YAP reporter assay; design: species or system Homo sapiens
# [22] = Inhibition of cell invasion in human colorectal cancer cells; assay type: functional
# MDA-MB-231 [23] = assay: Antiproliferative activity against human MDA-MB-231 cells incubated for 72 hrs by SRB method; assay type: functional, cell-based; conditions: MDA-MB-231, 72 h
# 4T1 = assay: Antiproliferative activity against mouse 4T1 cells incubated for 72 hrs by SRB method; assay type: functional, cell-based; conditions: 4T1, 72 h
# MDA-MB-231 [24] = assay: Antiproliferative activity against human MDA-MB-231 cells incubated for 96 hrs by MTT assay; assay type: functional, cell-based; conditions: MDA-MB-231, 96 h
# [25] = Antiproliferative activity against human HBC5 cells incubated for 96 hrs by MTT assay; assay type: functional, cell-based; conditions: HBC5, 96 h
# [26] = Antiproliferative activity against human HBC4 cells incubated for 96 hrs by MTT assay; assay type: functional, cell-based; conditions: HBC4, 96 h
# NCI-H1975 = assay: Antiproliferative activity against human NCI-H1975 cells incubated for 48 hrs by SRB method; assay type: functional, cell-based; conditions: NCI-H1975, 48 h
# NCI-H441 = assay: Antiproliferative activity against human NCI-H441 cells incubated for 48 hrs by SRB method; assay type: functional, cell-based; conditions: NCI-H441, 48 h
# A549 = assay: Antiproliferative activity against human A549 cells incubated for 48 hrs by SRB method; assay type: functional, cell-based; conditions: A549, 48 h
structure (smiles),measurement,setting,value
O=C(c1c(-c2cnccn2)nn2c(=O)cc(-c3ccc(C4CCCCC4)cc3)[nH]c12)N1CC(CF)C1,IC50,[1],40 nM
same,IC50,[2],10 nM
same,IC50,[3],110 nM
same,IC50,[4],50 nM
same,IC50,[5],40 nM
same,IC50,[6],10 nM
same,IC50,[7],60 nM
same,IC50,[8],30 nM
same,IC50,[9],50 nM
same,IC50,[10],20 nM
same,IC50,[11],40 nM
same,IC50,[12],> 20 nM
same,EC50,OVCAR-8 [13],200 nM
same,EC50,[14],190 nM
same,EC50,[15],> 50000 nM
same,Emin,OVCAR-8 [16],84%
same,Emin,[17],67%
CC(C)c1c(C(=O)Nc2ccccc2)c(-c2ccccc2)c(-c2ccc(F)cc2)n1CC[C@@H](O)C[C@@H](O)CC(=O)O [ATORVASTATIN],EC50,[18],23500 nM
same,EC50,[19],7000 nM
same,IC50,HuCCT-1,< 50000 nM
COc1ccc2c(c1)/C(=N/NC(=O)c1nnn(-c3ccccc3N)c1-c1ccc(Cl)c(Cl)c1)C(=O)N2,IC50,[20],1700 nM
N#C[C@@H]1CCN(C(=O)c2cnn3c(=O)cc(-c4ccc(C5CCCCC5)cc4)[nH]c23)C1,IC50,[1],30 nM
same,IC50,[2],10 nM
same,IC50,[3],50 nM
same,IC50,[4],210 nM
same,IC50,[5],50 nM
same,IC50,[6],10 nM
same,IC50,[7],40 nM
same,IC50,[8],80 nM
same,IC50,[9],30 nM
same,IC50,[10],20 nM
same,IC50,[11],40 nM
same,IC50,[12],50 nM
Nc1nonc1-n1nnc(C(=O)N/N=C2\C(=O)Nc3ccccc32)c1-c1ccc(Cl)c(Cl)c1,IC50,[20],6500 nM
CC(C)[C@]12O[C@H]1[C@@H]1O[C@@]13[C@@]1(C)CCC4=C(COC4=O)[C@@H]1C[C@@H]1O[C@@]13C2=O [TRIPTONIDE],IC50,C8161,5.56 nM
same,IC50,A-375,16.2 nM
COC(=O)c1cc(S(N)(=O)=O)ccc1NC1CCCCC1,IC50,NCI-H2052,> 3000 nM
same,IC50,[21],458 nM
N#Cc1ccc2[nH]cc(CCCCN3CCN(c4ccc5oc(C(N)=O)cc5c4)CC3)c2c1 [VILAZODONE],inhibition (INH),[22],36%
O=c1cc(-c2ccc(O)c(O)c2)oc2cc(O)cc(O)c12 [LUTEOLIN],IC50,MDA-MB-231 [23],19200 nM
same,IC50,4T1,6980 nM
CC(C)n1c(/C=C/[C@H](O)C[C@H](O)CC(=O)O)c(-c2ccc(F)cc2)c2ccccc21,IC50,MDA-MB-231 [24],< 10000 nM
same,IC50,[25],< 10000 nM
same,IC50,[26],< 10000 nM
same,EC50,[18],9950 nM
same,EC50,[19],950 nM
Cc1cc2c(C(C)C)c(O)c(O)c(C=O)c2c(O)c1-c1c(C)cc2c(C(C)C)c(O)c(O)c(C=O)c2c1O,IC50,NCI-H1975,6770 nM
same,IC50,NCI-H441,19900 nM
same,IC50,A549,10000 nM
